# Measurements taken from US10654816B2, “Compounds and compositions for treating conditions associated with NLRP activity” (NOVARTIS INFLAMMASOME RESEARCH, INC., priority 2017, dated 2020).
# Like-named read-outs stand apart in the source and are kept apart here.
# Tested on: IL-1β production in PMA-differentiated THP-1 cells
# Assay: IL-1β production in PMA-differentiated THP-1 cells stimulated with gramicidin (hTHP-1 assay, HTRF readout; Procedures 1-3)
# Format: cell-based, human
# Conditions: average, read-out: hTHP-1 IC50 (Average IC50 of compounds in hTHP-1 assay)
# Procedure: The Following Protocol is Suitable for Testing the Activity of the Compounds Disclosed Herein. Procedure 1: IL-1B Production in PMA-Differentiated THP-1 Cells Stimulated with Gramicidin.
# THP-1 cells were purchased from the American Type Culture Collection and sub-cultured according to instructions from the supplier. Cells were cultured in complete RPMI 1640 (containing 10% heat inactivated FBS, penicillin (100 units/ml) and streptomycin (100 μg/ml)), and maintained in log phase prior to experimental setup. Prior to the experiment, compounds were dissolved in dimethyl sulfoxide (DMSO) to generate a 30 mM stock. The compound stock was first pre-diluted in DMSO to 3, 0.34, 0.042 and 0.0083 mM intermediate concentrations and subsequently spotted using Echo550 liquid handler into an empty 384-well assay plate to achieve desired final concentration (e.g. 100, 33, 11, 3.7, 1.2, 0.41, 0.14, 0.046, 0.015, 0.0051, 0.0017 μM). DMSO was backfilled in the plate to achieve a final DMSO assay concentration of 0.37%. The plate was then sealed and stored at room temperature until required.
# THP-1 cells were treated with PMA (Phorbol 12-myristate 13-acetate) (20 ng/ml) for 16-18 hours. On the day of the experiment the media was removed and adherent cells were detached with trypsin for 5 minutes. Cells were then harvested, washed with complete RPMI 1640, spun down, and resuspended in RPMI 1640 (containing 2% heat inactivated FBS, penicillin (100 units/ml) and streptomycin (100 μg/ml). The cells were plated in the 384-well assay plate containing the spotted compounds at a density of 50,000 cells/well (final assay volume 50 μl). Cells were incubated with compounds for 1 hour and then stimulated with gramicidin (5 μM) (Enzo) for 2 hours. Plates were then centrifuged at 340 g for 5 min. Cell free supernatant (40 μL) was collected using a 96-channel PlateMaster (Gilson) and the production of IL-1β was evaluated by HTRF (cisbio). The plates were incubated for 18 h at 4° C. and read using the preset HTRF program (donor emission at 620 nm, acceptor emission at 668 nm) of the SpectraMax i3x spectrophotometer (Molecular Devices, software SoftMax 6). A vehicle only control and a dose titration of CRID3 (100-0.0017 μM) were run concurrently with each experiment.
# Procedure 2: IL-1β Production in PMA-Differentiated THP-1 Cells Stimulated with Gramicidin.
# THP-1 cells were purchased from the American Type Culture Collection and sub-cultured according to instructions from the supplier. Prior to experiments, cells were cultured in complete RPMI 1640 (containing 10% heat inactivated FBS, penicillin (100 units/ml) and streptomycin (100 μg/ml)), and maintained in log phase prior to experimental setup. Prior to the experiment THP-1 were treated with PMA (Phorbol 12-myristate 13-acetate) (20 ng/ml) for 16-18 hours. Compounds were dissolved in dimethyl sulfoxide (DMSO) to generate a 30 mM stock.
# On the day of the experiment the media was removed and adherent cells were detached with trypsin for 5 minutes. Cells were then harvested, washed with complete RPMI 1640, spun down, resuspended in RPMI 1640 (containing 2% heat inactivated FBS, penicillin (100 units/ml) and streptomycin (100 μg/ml). The cells were plated in a 384-well plate at a density of 50,000 cells/well (final assay volume 50 μl). Compounds were first dissolved in assay medium to obtain a 5× top concentration of 500 μM. 10 step dilutions (1:3) were then undertaken in assay medium containing 1.67% DMSO. 5× compound solutions were added to the culture medium to achieve desired final concentration (e.g. 100, 33, 11, 3.7, 1.2, 0.41, 0.14, 0.046, 0.015, 0.0051, 0.0017 μM). Final DMSO concentration was at 0.37%. Cells were incubated with compounds for 1 hour and then stimulated with gramicidin (5 μM) (Enzo) for 2 hours. Plates were then centrifuged at 340 g for 5 min. Cell free supernatant (40 μL) was collected using a 96-channel PlateMaster (Gilson) and the production of IL-1β was evaluated by HTRF (cisbio). […]
# [1] = Homo sapiens, THP-1, hTHP-1 assay containing 2% fetal bovine serum, given as bound
# [2] = Homo sapiens, THP-1, hTHP-1 assay containing 2% fetal bovine serum, class symbols
# [3] = hTHP-1 assay containing 2% fetal bovine serum, class symbols
IC50 [1] [µM],IC50 [2] [µM],Compound,also measured
> 30,–,"CC(=O)N(C)Cc1ccc(S(N)(=O)=NC(=O)Nc2c3c(cc4c2CCC4)CCC3)cc1 (single isomer, unassigned) [Example 365, (S) or (R)-N-(4-(N′-((1,2,3,5,6,7-hexahydro-s-indacen-4-yl)carbamoyl)sulfamid-imidoyl)benzyl)-N-methylacetamide]",–
–,1 to 5,"CC(=O)N(C)Cc1ccc(S(N)(=O)=NC(=O)Nc2c3c(cc4c2CCC4)CCC3)cc1 (single isomer, unassigned) [Example 366, (R) or (S)-N-(4-(N′-((1,2,3,5,6,7-hexahydro-s-indacen-4-yl)carbamoyl)sulfamid-imidoyl)benzyl)-N-methylacetamide]",–
> 30,–,"CC(=O)N(C)Cc1cccc(S(N)(=O)=NC(=O)Nc2c3c(cc4c2CCC4)CCC3)c1 (single isomer, unassigned) [Example 367, (S) or (R)-N-(3-(N′-((1,2,3,5,6,7-hexahydro-s-indacen-4-yl)carbamoyl)sulfamid-imidoyl)benzyl)-N-methylacetamide]",–
–,1 to 5,"CC(=O)N(C)Cc1cccc(S(N)(=O)=NC(=O)Nc2c3c(cc4c2CCC4)CCC3)c1 (single isomer, unassigned) [Example 368, (R) or (S)-N-(3-(N′-((1,2,3,5,6,7-hexahydro-s-indacen-4-yl)carbamoyl)sulfamid-imidoyl)benzyl)-N-methylacetamide]",–
> 30,–,"CC(C)(O)c1ncc(S(N)(=O)=NC(=O)Nc2c3c(cc4c2C(O)CC4)CCC3)s1 (single isomer, unassigned) [Example 369, (S, R/S) or (R, R/S)-N′-((3-hydroxy-1,2,3,5,6,7-hexahydro-s-indacen-4-yl)carbamoyl)-2-(2-hydroxypropan-2-yl)thiazole-5-sulfonimidamide]",–
–,0.2 to 1,"CC(C)(O)c1ncc(S(N)(=O)=NC(=O)Nc2c3c(cc4c2C(O)CC4)CCC3)s1 (single isomer, unassigned) [Example 370, (R, R/S) or (S, R/S)-N′-((3-hydroxy-1,2,3,5,6,7-hexahydro-s-indacen-4-yl)carbamoyl)-2-(2-hydroxypropan-2-yl)thiazole-5-sulfonimidamide]",–
–,1 to 5,"COC1CN(Cc2ccc(S(N)(=O)=NC(=O)Nc3c4c(cc5c3CCC5)CCC4)cc2)C1 (single isomer, unassigned) [Example 379, (R) or (S)-N′-((1,2,3,5,6,7-hexahydro-s-indacen-4-yl)carbamoyl)-4-((3-methoxyazetidin-1-yl)methyl)benzene-sulfonimidamide]",–
> 30,–,"COC1CN(Cc2ccc(S(N)(=O)=NC(=O)Nc3c4c(cc5c3CCC5)CCC4)cc2)C1 (single isomer, unassigned) [Example 380, (S) or (R)-N′-((1,2,3,5,6,7-hexahydro-s-indacen-4-yl)carbamoyl)-4-((3-methoxyazetidin-1-yl)methyl)benzene-sulfonimidamide]",–
> 30,–,"CNS(=O)(=NC(=O)Nc1c2c(cc3c1CCC3)CCC2)c1ccc(CN(C)C)cc1 (single isomer, unassigned) [Example 383, (R) or (S)-4-((dimethylamino)methyl)-N′-((1,2,3,5,6,7-hexahydro-s-indacen-4-yl)carbamoyl)-N-methylbenzene-sulfonimidamide]",–
–,–,"CNS(=O)(=NC(=O)Nc1c2c(cc3c1CCC3)CCC2)c1ccc(CN(C)C)cc1 (single isomer, unassigned) [Example 384, (S) or (R)-4-((dimethylamino)methyl)-N′-((1,2,3,5,6,7-hexahydro-s-indacen-4-yl)carbamoyl)-N-methylbenzene-sulfonimidamide]","IC50 (hTHP-1 assay containing 2% fetal bovine serum, given as bound): > 30 µM"
> 30,–,"COCCN(C)Cc1ccc(S(N)(=O)=NC(=O)Nc2c3c(cc4c2CCC4)CCC3)cc1 (single isomer, unassigned) [Example 389, (S) or (R)-N′-((1,2,3,5,6,7-hexahydro-s-indacen-4-yl)carbamoyl)-4-(((2-methoxyethyl)(meth-yl)amino)methyl)benzene-sulfonimidamide]",–
–,1 to 5,"COCCN(C)Cc1ccc(S(N)(=O)=NC(=O)Nc2c3c(cc4c2CCC4)CCC3)cc1 (single isomer, unassigned) [Example 390, (R) or (S)-N′-((1,2,3,5,6,7-hexahydro-s-indacen-4-yl)carbamoyl)-4-(((2-methoxyethyl)(meth-yl)amino)methyl)benzene-sulfonimidamide]",–
–,–,"CC(C)(O)c1ncc(S(N)(=O)=NC(=O)Nc2c3c(cc4c2C(O)CC4)CCC3)s1 (single isomer, unassigned) [Example 391, (R, R) or (R, S) or (S, S) or (S, R)-N′-((3-hydroxy-1,2,3,5,6,7-hexahydro-s-indacen-4-yl)carbamoyl)-2-(2-hydroxypropan-2-yl)thiazole-5-sulfonimidamide]",IC50 [3]: 0.2 to 1 µM
–,–,"CC(C)(O)c1ncc(S(N)(=O)=NC(=O)Nc2c3c(cc4c2C(O)CC4)CCC3)s1 (single isomer, unassigned) [Example 392, (R, S) or (R, R) or (S, R) or (S, S)-N′-((3-hydroxy- *1,2,3,5,6,7-hexahydro-s-indacen-4-yl)carbamoyl)-2-(2-hydroxypropan-2-yl)thiazole-5-sulfonimidamide]",IC50 [3]: 0.2 to 1 µM
–,1 to 5,"CN1CCc2cc(S(N)(=O)=NC(=O)Nc3c4c(cc5c3CCC5)CCC4)ccc2C1 (single isomer, unassigned) [Example 395, (R) or (S)-N′-((1,2,3,5,6,7-hexahydro-s-indacen-4-yl)carbamoyl)-2-methyl-1,2,3,4-tetrahydroisoquinoline-6-sulfonimidamide]",–
> 30,–,"CN1CCc2cc(S(N)(=O)=NC(=O)Nc3c4c(cc5c3CCC5)CCC4)ccc2C1 (single isomer, unassigned) [Example 396, (S) or (R)-N′-((1,2,3,5,6,7-hexahydro-s-indacen-4-yl)carbamoyl)-2-methyl-1,2,3,4-tetrahydroisoquinoline-6-sulfonimidamide]",–
–,1 to 5,"Cn1ncc2cc(S(N)(=O)=NC(=O)Nc3c4c(cc5c3CCC5)CCC4)ccc21 (single isomer, unassigned) [Example 397, (R) or (S)-N′-((1,2,3,5,6,7-hexahydro-s-indacen-4-yl)carbamoyl)-1-methyl-1H-indazole-5-sulfonimidamide]",–
> 30,–,"Cn1ncc2cc(S(N)(=O)=NC(=O)Nc3c4c(cc5c3CCC5)CCC4)ccc21 (single isomer, unassigned) [Example 398, (S) or (R)-N′-((1,2,3,5,6,7-hexahydro-s-indacen-4-yl)carbamoyl)-1-methyl-1H-indazole-5-sulfonimidamide]",–
> 30,–,"CC(C)c1ccc(S(N)(=O)=NC(=O)Nc2c3c(cc4c2CCC4)CCC3)cn1 (single isomer, unassigned) [Example 401, (R) or (S)-N′-((1,2,3,5,6,7-hexahydro-s-indacen-4-yl)carbamoyl)-6-isopropylpyridine-3-sulfonimidamide]",–
–,1 to 5,"CC(C)c1ccc(S(N)(=O)=NC(=O)Nc2c3c(cc4c2CCC4)CCC3)cn1 (single isomer, unassigned) [Example 402, (S) or (R)-N′-((1,2,3,5,6,7-hexahydro-s-indacen-4-yl)carbamoyl)-6-isopropylpyridine-3-sulfonimidamide]",–
